Three molecules from ChEMBL document CHEMBL1201862, “PubChem BioAssay data set” (2004) can be followed below.

Activity calls are given as the source filed them.

Usually EC50 stands for the concentration giving half of the maximal effect. Broadly, the IC50 is the concentration at which inhibition is half-maximal. Usually Ki stands for a dissociation constant, usually derived from enzyme kinetics or from competition with a known ligand.

Assay [1] concerns the target Sphingosine 1-phosphate receptor 2 (Homo sapiens, UniProt O95136). As to the kind of experiment: Late-stage fluorescence-based dose-response cell-based counterscreen assay to identify agonists of the Sphingosine 1-Phosphate Receptor 3 (S1P3): Sphingosine 1-Phosphate Receptor 2 (S1P2) agonist assay. It counts as functional. (In general: Counterscreens check selectivity or assay interference.)

The target in assay [2] is Sphingosine 1-phosphate receptor 4 (Homo sapiens, UniProt O95977). As to the kind of experiment: Late-stage fluorescence-based dose-response cell-based counterscreen assay to identify agonists of the Sphingosine 1-Phosphate Receptor 3 (S1P3): Sphingosine 1-Phosphate Receptor 4 (S1P4) agonist assay. Type of assay: functional.
The target of assay [3] is T1, High affinity choline transporter 1 (Homo sapiens, UniProt Q9GZV3).
T1 sequence (Q9GZV3 whole entry): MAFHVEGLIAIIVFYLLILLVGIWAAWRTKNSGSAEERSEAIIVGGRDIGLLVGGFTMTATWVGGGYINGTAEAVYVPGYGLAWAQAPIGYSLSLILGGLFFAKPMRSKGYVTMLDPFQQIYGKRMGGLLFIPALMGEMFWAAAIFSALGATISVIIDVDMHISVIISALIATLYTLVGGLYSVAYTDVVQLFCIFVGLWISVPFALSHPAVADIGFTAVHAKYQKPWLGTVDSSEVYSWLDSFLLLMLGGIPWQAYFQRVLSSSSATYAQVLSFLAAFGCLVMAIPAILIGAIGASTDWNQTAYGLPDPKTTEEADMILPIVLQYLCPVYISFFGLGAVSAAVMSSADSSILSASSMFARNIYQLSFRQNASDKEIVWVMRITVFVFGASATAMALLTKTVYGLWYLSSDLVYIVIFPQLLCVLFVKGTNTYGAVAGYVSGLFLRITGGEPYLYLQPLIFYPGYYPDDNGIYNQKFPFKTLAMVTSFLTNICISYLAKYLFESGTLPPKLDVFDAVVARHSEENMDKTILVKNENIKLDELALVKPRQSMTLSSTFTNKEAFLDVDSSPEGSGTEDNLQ
The experiment in a line: CHT activators, dose response, cell-based, 10-point CRC, membrane potential dye (AID 602376). Type of assay: functional.

Assay [4] in a line: cells. It counts as functional, cell-based.
Assay [5] addresses T2, Trace amine-associated receptor 1 (Homo sapiens, UniProt Q96RJ0).
T2 sequence (Q96RJ0 whole entry): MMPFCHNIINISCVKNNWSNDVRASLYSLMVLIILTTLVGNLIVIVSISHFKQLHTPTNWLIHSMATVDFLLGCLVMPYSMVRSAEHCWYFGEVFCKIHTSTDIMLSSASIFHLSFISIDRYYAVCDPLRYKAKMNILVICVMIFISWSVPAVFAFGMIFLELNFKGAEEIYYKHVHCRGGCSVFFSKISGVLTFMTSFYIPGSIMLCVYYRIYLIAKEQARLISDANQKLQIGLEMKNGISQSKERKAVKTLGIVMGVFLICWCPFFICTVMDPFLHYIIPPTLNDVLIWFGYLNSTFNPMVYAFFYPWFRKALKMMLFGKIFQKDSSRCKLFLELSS
As to the kind of experiment: Fluorescence-based cell-based high throughput dose response assay to identify agonists of the human trace amine associated receptor 1 (TAAR1). Type of assay: functional.

Assay [6] deals with T2, Trace amine-associated receptor 1. The experiment in a line: Counterscreen for agonists of the human trace amine associated receptor 1 (hTAAR1): Fluorescence-based cell-based high throughput dose response assay to identify hTAAR1 agonist that also desensitize TAAR1 receptor response. It counts as functional.
A short description of assay [7]: cells. Type of assay: functional, cell-based. This is another data set of the same source.
Assay [8] addresses Protein kinase C theta type (Homo sapiens, UniProt Q04759). The experiment in a line: Navigating the Kinome. Panel member name: PRKCQ. Type of assay: functional.
The target of assay [9] is Ribosomal protein S6 kinase alpha-3 (Homo sapiens, UniProt P51812). It counts as functional.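 Also: measured within a kinome-wide profiling panel.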
Assay [10] addresses Dual specificity protein kinase CLK2 (Homo sapiens, UniProt P49760). Type of assay: functional.
For assay [11], the target named is Dual specificity mitogen-activated protein kinase kinase 1 (Homo sapiens, UniProt Q02750). As to the kind of experiment: Navigating the Kinome. Panel member name: MAP2K1. Type of assay: functional.
In assay [12] the target is Tyrosine-protein kinase JAK2 (Homo sapiens, UniProt O60674). Type of assay: functional.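 Also: JAK2 tested as one member of a kinase panel.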
In assay [13] the target is Serine/threonine-protein kinase TBK1 (Homo sapiens, UniProt Q9UHD2). The experiment in a line: Navigating the Kinome. Panel member name: TBK1. Type of assay: functional.
The target in assay [14] is 5'-AMP-activated protein kinase catalytic subunit alpha-1 (Homo sapiens, UniProt Q13131). Type of assay: functional.
For assay [15], the target named is ALK tyrosine kinase receptor (Homo sapiens, UniProt Q9UM73). Type of assay: functional.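 Also: ALK tested as one member of a kinase panel screen.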
Assay [16] concerns the target Tyrosine-protein kinase receptor TYRO3 (Homo sapiens, UniProt Q06418). Type of assay: functional.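 Also: TYRO3 value obtained as one member of a kinome-wide profiling panel.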
The target in assay [17] is Serine/threonine-protein kinase D3 (Homo sapiens, UniProt O94806). It counts as functional.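 Also: determined within a kinase panel screen, with PRKCN as the panel member.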
For assay [18], the target named is Death-associated protein kinase 3 (Homo sapiens, UniProt O43293). It counts as functional.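 Also: measured as one member of a kinome-wide profiling panel.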
The target in another assay is Activin receptor type-1 (Homo sapiens, UniProt Q04771). As to the kind of experiment: Navigating the Kinome. Panel member name: ACVR1. It counts as functional.
The target of assay [19] is Mitogen-activated protein kinase 8 (Homo sapiens, UniProt P45983). It counts as functional.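 Also: value comes from one member of a kinome-wide kinase profiling panel.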
Chain of Mitogen-activated protein kinase 8 (P45983 whole entry): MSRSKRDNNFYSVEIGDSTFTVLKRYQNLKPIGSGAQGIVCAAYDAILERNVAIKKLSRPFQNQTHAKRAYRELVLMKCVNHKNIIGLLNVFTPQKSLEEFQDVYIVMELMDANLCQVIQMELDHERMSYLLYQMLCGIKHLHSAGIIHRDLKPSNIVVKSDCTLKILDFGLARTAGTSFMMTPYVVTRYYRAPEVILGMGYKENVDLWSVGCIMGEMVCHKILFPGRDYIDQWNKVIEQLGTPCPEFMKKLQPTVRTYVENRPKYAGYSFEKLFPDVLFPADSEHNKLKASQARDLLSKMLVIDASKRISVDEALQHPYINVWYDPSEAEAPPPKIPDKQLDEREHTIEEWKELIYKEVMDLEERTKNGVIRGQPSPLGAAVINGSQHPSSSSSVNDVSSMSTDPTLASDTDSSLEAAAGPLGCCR
The next assay deals with Aurora kinase A (Homo sapiens, UniProt O14965). It counts as functional.
Assay [20] concerns the target Tyrosine-protein kinase BTK (Homo sapiens, UniProt Q06187). Type of assay: functional.
Assay [21] addresses Serine/threonine-protein kinase PAK 4 (Homo sapiens, UniProt O96013). Type of assay: functional.
For assay [22], the target named is Fibroblast growth factor receptor 1 (Homo sapiens, UniProt P11362). Type of assay: functional.
The target of assay [23] is Casein kinase I isoform alpha (Homo sapiens, UniProt P48729). It counts as functional.
Assay [24] addresses Tyrosine-protein kinase JAK3 (Homo sapiens, UniProt P52333). Type of assay: functional.
Assay [25] concerns the target Mitogen-activated protein kinase 9 (Homo sapiens, UniProt P45984). It counts as functional.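 Also: value from a kinome panel profiling assay, MAPK9 panel entry.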
Assay [26] addresses Glycogen synthase kinase-3 alpha (Homo sapiens, UniProt P49840). Type of assay: functional.
Assay [27] addresses Mitogen-activated protein kinase kinase kinase kinase 2 (Homo sapiens, UniProt Q12851). Type of assay: functional.
The next assay deals with Activated CDC42 kinase 1 (Homo sapiens, UniProt Q07912). The experiment in a line: Navigating the Kinome. Panel member name: ACK1. It counts as functional.
Assay [28] concerns the target Platelet-derived growth factor receptor beta (Homo sapiens, UniProt P09619). Type of assay: functional.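 Also: value comes from a kinome panel, with PDGFRB tested as one panel member.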
In assay [29] the target is Tyrosine-protein kinase ABL1 (Homo sapiens, UniProt P00519). Type of assay: functional.
Assay [30] has as its target Vascular endothelial growth factor receptor 2 (Homo sapiens, UniProt P35968). Type of assay: functional.
The target in assay [31] is Cyclin-dependent kinase 5 (Homo sapiens, UniProt Q00535). It counts as functional.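 Also: CDK5 measured as one member of a kinase profiling panel.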
Chain of Cyclin-dependent kinase 5 (Q00535 whole entry): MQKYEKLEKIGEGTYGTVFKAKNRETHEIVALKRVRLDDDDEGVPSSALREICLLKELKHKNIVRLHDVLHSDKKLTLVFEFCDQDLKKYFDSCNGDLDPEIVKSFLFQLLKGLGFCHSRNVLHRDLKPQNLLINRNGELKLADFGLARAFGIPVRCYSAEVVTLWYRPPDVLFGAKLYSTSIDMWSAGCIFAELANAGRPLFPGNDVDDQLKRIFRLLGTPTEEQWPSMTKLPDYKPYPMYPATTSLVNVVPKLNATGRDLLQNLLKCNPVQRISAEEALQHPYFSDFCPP
The target in assay [32] is Dual specificity tyrosine-phosphorylation-regulated kinase 1B (Homo sapiens, UniProt Q9Y463). As to the kind of experiment: Navigating the Kinome. Panel member name: DYRK1B. It counts as functional.
Another assay concerns the target Focal adhesion kinase 1 (Homo sapiens, UniProt Q05397). It counts as functional.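 Also: measured as one member of a kinome panel.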
Assay [33] deals with Leucine-rich repeat serine/threonine-protein kinase 2 (Homo sapiens, UniProt Q5S007). It counts as functional.
Another assay addresses Aurora kinase B (Homo sapiens, UniProt Q96GD4). Type of assay: functional.
Assay [34] addresses Rho-associated protein kinase 1 (Homo sapiens, UniProt Q13464). Type of assay: functional.
Assay [35] addresses Cyclin-dependent kinase 8 (Homo sapiens, UniProt P49336). As to the kind of experiment: Navigating the Kinome. Panel member name: CDK8. Type of assay: functional.
Assay [36] concerns the target Cyclin-dependent kinase 7 (Homo sapiens, UniProt P50613). It counts as functional.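 Also: value comes from a kinome-wide kinase profiling panel in which CDK7 is one member.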
The target in assay [37] is Vascular endothelial growth factor receptor 1 (Homo sapiens, UniProt P17948). Type of assay: functional.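 Also: measured within a kinome-wide profiling panel, FLT1 as the panel member.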
The target of assay [38] is Glycogen synthase kinase-3 beta (Homo sapiens, UniProt P49841). Type of assay: functional.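 Also: value comes from a broad kinome profiling panel, with GSK3B as the panel member.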
The target of assay [39] is Cyclin-dependent kinase 9 (Homo sapiens, UniProt P50750). Type of assay: functional.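 Also: value from the CDK9 entry of a kinome-spanning kinase panel.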
Assay [40] has as its target cAMP-dependent protein kinase catalytic subunit alpha (Homo sapiens, UniProt P17612). Type of assay: functional.
The target in assay [41] is Dual specificity protein kinase CLK4 (Homo sapiens, UniProt Q9HAZ1). It counts as functional.
Chain of Dual specificity protein kinase CLK4 (Q9HAZ1 whole entry): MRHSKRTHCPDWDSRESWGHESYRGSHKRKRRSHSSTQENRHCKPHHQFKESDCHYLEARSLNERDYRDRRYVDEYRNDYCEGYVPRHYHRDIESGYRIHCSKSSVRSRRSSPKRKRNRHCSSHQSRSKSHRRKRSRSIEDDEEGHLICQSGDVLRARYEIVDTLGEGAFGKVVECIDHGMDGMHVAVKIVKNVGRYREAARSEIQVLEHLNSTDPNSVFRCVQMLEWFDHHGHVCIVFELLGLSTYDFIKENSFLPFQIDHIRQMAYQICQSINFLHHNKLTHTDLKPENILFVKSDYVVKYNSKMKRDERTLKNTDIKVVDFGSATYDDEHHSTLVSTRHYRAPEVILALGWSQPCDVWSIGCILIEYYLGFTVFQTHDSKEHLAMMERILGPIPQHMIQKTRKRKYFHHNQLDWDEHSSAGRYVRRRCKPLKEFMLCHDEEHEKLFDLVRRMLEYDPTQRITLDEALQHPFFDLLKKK
Assay [42] addresses Mitogen-activated protein kinase kinase kinase kinase 4 (Homo sapiens, UniProt O95819). It counts as functional.
In assay [43] the target is Macrophage-stimulating protein receptor (Homo sapiens, UniProt Q04912). As to the kind of experiment: Navigating the Kinome. Panel member name: MST1R. Type of assay: functional.
Assay [44] has as its target Macrophage colony-stimulating factor 1 receptor (Homo sapiens, UniProt P07333). Type of assay: functional.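 Also: value comes from the Navigating the Kinome screening panel, CSF1R member.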
For assay [45], the target named is Dual specificity mitogen-activated protein kinase kinase 2 (Homo sapiens, UniProt P36507). As to the kind of experiment: Navigating the Kinome. Panel member name: MAP2K2. Type of assay: functional.
Assay [46] concerns the target Dual specificity tyrosine-phosphorylation-regulated kinase 1A (Homo sapiens, UniProt Q13627). It counts as functional.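 Also: measured against DYRK1A as one member of a broad kinome profiling panel.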
Assay [47] addresses Inhibitor of nuclear factor kappa-B kinase subunit epsilon (Homo sapiens, UniProt Q14164). As to the kind of experiment: Navigating the Kinome. Panel member name: IKBKE. Type of assay: functional.
For assay [48], the target named is Leukocyte tyrosine kinase receptor (Homo sapiens, UniProt P29376). The experiment in a line: Navigating the Kinome. Panel member name: LTK. It counts as functional.

Chain of Cyclin-dependent kinase 8 (P49336 whole entry): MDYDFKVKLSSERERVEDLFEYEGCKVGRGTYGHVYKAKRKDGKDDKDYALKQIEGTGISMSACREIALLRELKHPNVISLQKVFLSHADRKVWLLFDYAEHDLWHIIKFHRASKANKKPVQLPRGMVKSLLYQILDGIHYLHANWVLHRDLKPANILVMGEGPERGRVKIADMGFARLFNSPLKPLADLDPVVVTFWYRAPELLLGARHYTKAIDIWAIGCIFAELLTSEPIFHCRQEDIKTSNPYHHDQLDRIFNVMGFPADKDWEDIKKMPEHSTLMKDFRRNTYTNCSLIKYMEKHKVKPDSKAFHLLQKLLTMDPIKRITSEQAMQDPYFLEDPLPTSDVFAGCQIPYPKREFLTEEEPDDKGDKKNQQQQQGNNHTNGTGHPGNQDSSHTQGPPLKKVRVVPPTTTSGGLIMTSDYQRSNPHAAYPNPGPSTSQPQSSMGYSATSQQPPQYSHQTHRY
Chain of Glycogen synthase kinase-3 alpha (P49840 whole entry): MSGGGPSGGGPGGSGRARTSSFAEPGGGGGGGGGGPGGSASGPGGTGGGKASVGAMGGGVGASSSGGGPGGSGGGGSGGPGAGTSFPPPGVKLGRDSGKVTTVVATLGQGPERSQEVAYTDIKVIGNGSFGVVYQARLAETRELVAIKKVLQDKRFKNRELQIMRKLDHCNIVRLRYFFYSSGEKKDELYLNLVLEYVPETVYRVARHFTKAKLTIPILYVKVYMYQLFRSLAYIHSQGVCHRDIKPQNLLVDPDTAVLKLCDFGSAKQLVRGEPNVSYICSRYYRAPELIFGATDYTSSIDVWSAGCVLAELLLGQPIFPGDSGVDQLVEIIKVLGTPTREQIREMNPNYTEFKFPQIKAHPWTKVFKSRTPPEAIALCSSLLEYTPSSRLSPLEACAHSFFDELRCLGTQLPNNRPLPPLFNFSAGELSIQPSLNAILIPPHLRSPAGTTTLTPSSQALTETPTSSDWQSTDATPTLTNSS
Chain of Macrophage colony-stimulating factor 1 receptor (P07333 whole entry): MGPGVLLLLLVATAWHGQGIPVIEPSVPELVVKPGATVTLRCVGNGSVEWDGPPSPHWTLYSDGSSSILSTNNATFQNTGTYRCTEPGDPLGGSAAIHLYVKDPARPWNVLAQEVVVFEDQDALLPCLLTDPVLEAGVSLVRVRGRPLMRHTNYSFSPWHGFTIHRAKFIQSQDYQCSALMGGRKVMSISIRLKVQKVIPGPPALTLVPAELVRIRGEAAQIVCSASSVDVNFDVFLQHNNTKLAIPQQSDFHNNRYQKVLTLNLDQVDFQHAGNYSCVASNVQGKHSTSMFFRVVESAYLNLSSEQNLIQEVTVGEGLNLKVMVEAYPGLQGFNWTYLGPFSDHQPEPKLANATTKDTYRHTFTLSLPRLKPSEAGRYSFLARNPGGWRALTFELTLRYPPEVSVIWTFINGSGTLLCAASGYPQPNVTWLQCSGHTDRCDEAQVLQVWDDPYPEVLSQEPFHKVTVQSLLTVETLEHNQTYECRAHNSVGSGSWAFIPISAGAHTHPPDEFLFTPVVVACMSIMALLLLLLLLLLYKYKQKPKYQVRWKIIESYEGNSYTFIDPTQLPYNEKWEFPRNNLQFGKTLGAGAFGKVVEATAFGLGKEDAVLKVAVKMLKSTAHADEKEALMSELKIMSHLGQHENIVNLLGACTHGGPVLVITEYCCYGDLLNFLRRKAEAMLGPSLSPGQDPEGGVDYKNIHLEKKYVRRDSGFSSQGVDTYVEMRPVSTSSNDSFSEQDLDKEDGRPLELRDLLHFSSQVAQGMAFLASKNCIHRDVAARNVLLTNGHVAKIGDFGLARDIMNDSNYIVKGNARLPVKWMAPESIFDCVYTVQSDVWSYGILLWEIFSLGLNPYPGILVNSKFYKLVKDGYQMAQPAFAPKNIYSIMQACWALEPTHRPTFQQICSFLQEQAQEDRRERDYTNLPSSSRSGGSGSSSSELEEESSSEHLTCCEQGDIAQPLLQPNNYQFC
Chain of Platelet-derived growth factor receptor beta (P09619 whole entry): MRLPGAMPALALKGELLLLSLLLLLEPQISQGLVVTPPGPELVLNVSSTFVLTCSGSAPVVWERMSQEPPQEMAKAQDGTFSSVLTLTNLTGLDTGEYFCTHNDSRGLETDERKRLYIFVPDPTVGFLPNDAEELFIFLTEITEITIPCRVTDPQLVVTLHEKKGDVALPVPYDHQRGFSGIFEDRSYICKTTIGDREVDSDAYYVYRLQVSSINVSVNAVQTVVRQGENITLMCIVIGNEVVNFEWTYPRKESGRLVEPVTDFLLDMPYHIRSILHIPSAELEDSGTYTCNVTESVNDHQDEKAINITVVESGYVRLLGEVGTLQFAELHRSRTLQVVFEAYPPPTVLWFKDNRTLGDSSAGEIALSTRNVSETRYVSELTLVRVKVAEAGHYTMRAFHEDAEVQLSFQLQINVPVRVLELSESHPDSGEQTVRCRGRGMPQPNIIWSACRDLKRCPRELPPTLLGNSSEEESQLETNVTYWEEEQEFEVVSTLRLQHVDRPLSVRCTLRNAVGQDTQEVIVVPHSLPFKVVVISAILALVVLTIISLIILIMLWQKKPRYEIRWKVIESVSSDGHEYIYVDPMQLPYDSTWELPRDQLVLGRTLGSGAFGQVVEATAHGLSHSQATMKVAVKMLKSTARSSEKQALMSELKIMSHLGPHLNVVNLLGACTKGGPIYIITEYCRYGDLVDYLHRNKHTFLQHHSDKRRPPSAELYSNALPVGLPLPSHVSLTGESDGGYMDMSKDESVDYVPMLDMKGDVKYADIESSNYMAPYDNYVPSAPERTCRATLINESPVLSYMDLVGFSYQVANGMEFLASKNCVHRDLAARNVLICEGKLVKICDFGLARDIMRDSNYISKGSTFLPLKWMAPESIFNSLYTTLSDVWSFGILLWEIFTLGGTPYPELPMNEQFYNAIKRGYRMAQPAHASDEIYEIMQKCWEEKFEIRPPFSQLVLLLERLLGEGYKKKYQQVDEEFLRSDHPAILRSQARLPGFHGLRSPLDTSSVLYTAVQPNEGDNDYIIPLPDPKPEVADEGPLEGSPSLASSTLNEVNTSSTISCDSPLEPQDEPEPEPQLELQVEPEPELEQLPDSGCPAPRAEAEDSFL
Chain of Sphingosine 1-phosphate receptor 2 (O95136 whole entry): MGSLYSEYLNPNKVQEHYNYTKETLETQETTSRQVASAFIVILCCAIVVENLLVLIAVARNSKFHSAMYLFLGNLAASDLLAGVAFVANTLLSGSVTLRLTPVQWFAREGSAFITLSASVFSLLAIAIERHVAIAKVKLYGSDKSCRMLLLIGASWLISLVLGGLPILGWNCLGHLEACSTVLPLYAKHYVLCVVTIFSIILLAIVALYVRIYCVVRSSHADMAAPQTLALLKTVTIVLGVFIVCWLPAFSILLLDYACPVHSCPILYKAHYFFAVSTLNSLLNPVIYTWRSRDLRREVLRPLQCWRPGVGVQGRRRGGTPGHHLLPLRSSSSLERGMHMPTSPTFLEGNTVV
Chain of Aurora kinase B (Q96GD4 whole entry): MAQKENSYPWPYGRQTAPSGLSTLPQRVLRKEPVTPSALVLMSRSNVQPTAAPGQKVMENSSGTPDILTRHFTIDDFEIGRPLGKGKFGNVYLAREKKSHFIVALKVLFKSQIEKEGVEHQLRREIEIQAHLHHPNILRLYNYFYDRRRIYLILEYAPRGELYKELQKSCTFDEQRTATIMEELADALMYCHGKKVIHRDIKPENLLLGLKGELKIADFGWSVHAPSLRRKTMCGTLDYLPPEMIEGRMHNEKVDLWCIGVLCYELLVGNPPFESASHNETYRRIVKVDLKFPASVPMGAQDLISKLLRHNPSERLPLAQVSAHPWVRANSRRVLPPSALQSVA

Consider `CCCc1cc(C(=O)N(C2CCCCC2)C2CCCC2)no1`, for which the EC50 in assay [1] and in assay [2] was > 50 µM (inactive) throughout.
Turning to `CC(C)CC(C(=O)N1CCc2ccccc2C1)N1C(=O)c2ccccc2C1=O` (stereo not drawn), the EC50 in assay [3] was 22.4 µM (active); in [5], 2.96 µM (active); in “cells [7]”, > 29.9 µM (inactive). For the same molecule, the IC50 is > 29.9 µM (inactive) in the assay “cells [4]” and 5.55 µM (active) in assay [6].
As for `Fc1cccc(CNc2ncnc3nc[nH]c23)c1`, the Ki in assay [8] is 50.1 µM (active); in assay [9] it was 39.8 µM (active); in assay [10], 25.1 µM (active); in assay [11] it was 10 µM (active); in assay [12] it was 31.6 µM (active); in assay [13], 63.1 µM (active). Moreover, the Ki in assay [14] was 15.8 µM (active); in assay [15], 63.1 µM (active); in assay [16] it was 63.1 µM (active); in [17], 63.1 µM (active); in assay [18] it was 31.6 µM (active); on Activin receptor type-1, 39.8 µM (active). Further, the Ki in [19] was 15.8 µM (active); on Aurora kinase A, 39.8 µM (active); in assay [20] it was 63.1 µM (active); in assay [21], 20 µM (active); in assay [22], 25.1 µM (active); in assay [23], 10 µM (active). Further, the Ki in assay [24] is 63.1 µM (active); in assay [25] it was 50.1 µM (active); in assay [26], 50.1 µM (active); in assay [27], 79.4 µM (active); at Activated CDC42 kinase 1 it was 25.1 µM (active); in assay [28], 12.6 µM (active). For the same molecule, the Ki is 50.1 µM (active) in [29]; 25.1 µM (active) in assay [30]; 5.01 µM (active) in assay [31]; 12.6 µM (active) in assay [32]; 79.4 µM (active) at Focal adhesion kinase 1; 2 µM (active) in assay [33]. Besides, the Ki on Aurora kinase B was 15.8 µM (active); in assay [34] it was 5.01 µM (active); in [35], 12.6 µM (active); in assay [36], 31.6 µM (active); in assay [37], 79.4 µM (active); in assay [38], 50.1 µM (active). Further, the Ki in [39] is > 63.1 µM (inactive); in [40], 10 µM (active); in [41] it was 1.58 µM (active); in assay [42] it was 79.4 µM (active); in assay [43], 31.6 µM (active); in assay [44], 31.6 µM (active). The Ki was 39.8 µM (active) in assay [45], 39.8 µM (active) in assay [46], 100 µM (active) in [47] and 15.8 µM (active) in assay [48].
